{
  "source": "patent EP4635488A1",
  "about": "“PHARMACEUTICAL COMPOSITION FOR PREVENTING OR TREATING BONE DISEASES” (Industry Foundation of Chonnam National University, priority 2022, dated 2024)",
  "data": [
    {"test_system": "RANKL-induced BMM", "experiment": "In vitro osteoclast formation assay (TRAP staining / TRAP activity)", "type": "cell-based, C57/BL6 mice", "parameters": "key to Inhibition rate (%): \"Inactive\" indicates that the % inhibition is less than 30%", "settings": "1 µM; osteoclast differentiation in RANKL-induced BMM; mean ± SD from at least three experiments", "method": "(§1) Bone marrow cells (BMC) were obtained from 8-week-old female C57/BL6 mice by washing femurs and tibias with α-MEM. BMCs were then cultured overnight in full α-MEM containing 10% FBS, 100 U/mL penicillin, and 100 µg/mL streptomycin. Non-attached cells were collected and cultured with M-CSF (30 ng/ mL) for 3 days, and then the attached cells were used as BMM. All animal experiments were approved by Chonnam National University IACUC (approval number: CNU IACUC-YB-2019-49).\n(§2) To generate osteoclasts, BMMs were harvested and cultured in a complete medium containing 30 ng/mL M-CSF and 50 ng/mL RANKL with or without compounds for approximately 4 days to obtain mature osteoclasts. Differentiated osteoclasts were fixed with 4% formalin for 15 minutes, and then the cells were stained using a TRAP staining kit. The spread of osteoclast areas could be observed under the microscope. The viability of BMM (1 × 10^4 cells/well) was assessed in a 96-well plate using a cell viability assay kit as previously described.", "units": {"Inhibition rate (%)": "%"}, "values": [
      {"smiles": "O=C(CNc1cccc(C(=O)Oc2ccc(Cl)cc2)c1)Nc1ccccc1Sc1ccccc1", "note": "[Compound 25-KR-25, 4-Chlorophenyl 3-((2-oxo-2-((2-(phenylthio)phenyl)amino)ethyl)amino) benzoate]", "Inhibition rate (%)": "43.18 ± 2.32"}
    ]},
    {"test_system": "RANKL-induced BMM", "experiment": "In vitro osteoclast formation assay (TRAP staining / TRAP activity)", "type": "cell-based, C57/BL6 mice", "parameters": "key to Inhibition rate (%): \"Inactive\" indicates that the % inhibition is less than 30%", "settings": "2 µM; osteoclast differentiation in RANKL-induced BMM; mean ± SD from at least three experiments", "method": "as §1, §2", "values": [
      {"smiles": "Cc1ccc(OC(=O)c2cccc(N(CC(=O)Nc3ccccc3Sc3ccccc3)S(C)(=O)=O)c2)cc1", "note": "[Compound 25-KR-07, p -Tolyl 3-(N-(2-oxo-2-((2-(phenylthio)phenyl)amino)ethyl)methylsulfonamido) benzoate]", "Inhibition rate (%)": "Inactive ^c"},
      {"smiles": "CS(=O)(=O)N(CC(=O)Nc1ccccc1Sc1ccccc1)c1cccc(C(=O)Oc2ccc([N+](=O)[O-])cc2)c1", "note": "[Compound 25-KR-13, 4-Nitrophenyl 3-(N-(2-oxo-2-((2-(phenylthio)phenyl)amino)ethyl)methylsulfonamido)benzoate]", "Inhibition rate (%)": "Inactive ^c"},
      {"smiles": "COC(=O)c1cccc(N(CC(=O)Nc2ccccc2Sc2ccccc2)S(C)(=O)=O)c1", "note": "[Compound 25-KR-01, Methyl 3-(N-(2-oxo-2-((2-(phenylthio)phenyl)amino)ethyl)methylsulfonamido) benzoate]", "Inhibition rate (%)": "Inactive ^c"},
      {"smiles": "CC(C)(C)c1ccc(OC(=O)c2cccc(N(CC(=O)Nc3ccccc3Sc3ccccc3)S(C)(=O)=O)c2)cc1", "note": "[Compound 25-KR-04, 4-(tert-butyl)phenyl 3-(N-(2-oxo-2-((2-(phenylthio)phenyl)amino)ethyl)methylsulfonamido)benzoate]", "Inhibition rate (%)": "Inactive ^c"},
      {"smiles": "Cc1ccccc1OC(=O)c1cccc(N(CC(=O)Nc2ccccc2Sc2ccccc2)S(C)(=O)=O)c1", "note": "[Compound 25-KR-05, o -Tolyl 3-(N -(2-oxo-2-((2-(phenylthio)phenyl)amino)ethyl)methylsulfonamido) benzoate]", "Inhibition rate (%)": "Inactive ^c"},
      {"smiles": "CC(C)(C)[Si](C)(C)Oc1cccc(NCC(=O)Nc2ccccc2Sc2ccccc2)c1", "note": "[Compound 25-KR-18, 2-((3-((tert-butyldimethylsilyl)oxy)phenyl)amino)-N-(2-(phenylthio)phenyl)acetamide]", "Inhibition rate (%)": "Inactive ^c"},
      {"smiles": "CS(=O)(=O)N(CC(=O)Nc1ccccc1Sc1ccccc1)c1cccc(C(=O)Oc2ccc3ccccc3c2)c1", "note": "[Compound 25-KR-15, Naphthalen-2-yl 3-(N-(2-oxo-2-((2-(phenylthio)phenyl)amino)ethyl)methylsulfonamido)benzoate]", "Inhibition rate (%)": "Inactive ^c"},
      {"smiles": "CS(=O)(=O)N(CC(=O)Nc1ccccc1Sc1ccccc1)c1cccc(C(=O)Oc2cccc3ccccc23)c1", "note": "[Compound 25-KR-14, Naphthalen-1-yl 3-(N-(2-oxo-2-((2-(phenylthio)phenyl)amino)ethyl)methylsulfonamido)benzoate]", "Inhibition rate (%)": "Inactive ^c"},
      {"smiles": "CS(=O)(=O)N(CC(=O)Nc1ccccc1Sc1ccccc1)c1cccc(O)c1", "note": "[Compound 25-KR-17, 2-(N-(3-hydroxyphenyl)methylsulfonamido)-N-(2-(phenylthio)phenyl)acetamide]", "Inhibition rate (%)": "Inactive ^c"}
    ]},
    {"test_system": "RANKL-induced BMM", "experiment": "In vitro osteoclast formation assay (TRAP staining / TRAP activity)", "type": "cell-based, C57/BL6 mice", "parameters": "key to Inhibition rate (%): \"Inactive\" indicates that the % inhibition is less than 30%", "settings": "Mus musculus; 1 µM; osteoclast differentiation in RANKL-induced BMM; mean ± SD from at least three experiments; read-out: Inhibition rate (%)", "method": "as §1, §2", "units": {"inhibition at 1 µM": "%"}, "values": [
      {"smiles": "Cc1ccc(OC(=O)c2cccc(NCC(=O)Nc3ccccc3Sc3ccccc3)c2)cc1", "note": "[Compound 25-KR-24, p-Tolyl 3-((2-oxo-2-((2-(phenylthio)phenyl)amino)ethyl)amino)benzoate]", "inhibition at 1 µM": "36.8 ± 7.82"},
      {"smiles": "Cc1ccccc1OC(=O)c1cccc(NCC(=O)Nc2ccccc2Sc2ccccc2)c1", "note": "[Compound 25-KR-22, o-Tolyl 3-((2-oxo-2-((2-(phenylthio)phenyl)amino)ethyl)amino)benzoate]", "inhibition at 1 µM": "47.7 ± 11.4"},
      {"smiles": "Cc1cccc(OC(=O)c2cccc(NCC(=O)Nc3ccccc3Sc3ccccc3)c2)c1", "note": "[Compound 25-KR-23, m-Tolyl 3-((2-oxo-2-((2-(phenylthio)phenyl)amino)ethyl)amino)benzoate]", "inhibition at 1 µM": "46.8 ± 13.4"}
    ]},
    {"test_system": "RANKL-induced BMM", "experiment": "In vitro osteoclast formation assay (TRAP staining / TRAP activity)", "type": "cell-based, C57/BL6 mice", "parameters": "key to Inhibition rate (%): \"Inactive\" indicates that the % inhibition is less than 30%", "settings": "Mus musculus; 2 µM; osteoclast differentiation in RANKL-induced BMM; mean ± SD from at least three experiments; read-out: Inhibition rate (%)", "method": "as §1, §2", "units": {"inhibition at 2 µM": "%"}, "values": [
      {"smiles": "NCCCC(O)(P(=O)(O)O)P(=O)(O)O", "note": "[Alendronate, reference compound]", "inhibition at 2 µM": "41.2 ± 8.68"}
    ]}
  ]
}
